According to PubChem BioAssay AID1963851 (Molecular Pharmacology Branch, DTP, NCI, 2024):
“And” between values parts separate entries of the source, which are not always exact repeats. Equal entries are not always repeated. Each block holds one compound with its values, some of them ahead of it.

Tested on: 188146-221-R-J1-PDC complex spheroid viability
Experiment: Anticancer human tumor 188146-221-R-J1-PDC patient-derived colon adenocarcinoma cell line growth inhibition [POLQ]
Settings: for viability, T/C: stronger effect = lower value
Description: Multicellular complex tumor spheroid response to Polymerase (POL) inhibitors (novobiocin, ART-558, RP6685) in combination with a variety of drugs and investigational agents in selected tumor cell lines
The POL inhibitors (novobiocin, ART-558, and RP6685) were evaluated both individually and in combination with standard of care and investigational anticancer small molecules within a complex spheroid model of solid tumors. . Complex spheroids include a stromal component modeled by human endothelial cells (HUVEC) and fibroblasts modeled by human mesenchymal stem cells (MSCs). The concentration ranges selected for each drug and investigational agent were based upon clinically achievable concentrations if the clinical Cmax of the agent was known.
Compounds. The drugs and investigational agents: novobiocin (NSC847541), ART-558 (NSC835418), RP-6685 (NSC848927), peposertib (NSC802822), ceralasertib (NSC780249), elimusertib (NSC800525), camonsertib (NSC841442), AZD-1390 (NSC803789), olaparib (NSC753686), talazoparib (NSC767125), rucaparib (NSC756644), sotorasib (NSC818433), MRTX-1133 (NSC836407), SN-38 (NSC673596), topotecan (NSC609699), epotoside (NSC141540), doxorubicin (NSC123127), gemcitabine (NSC613327), 5-fluorouracil (NSC19893), paclitaxel (NSC125973), vemurafenib (NSC761431), MSA-2 (NSC828583), SN-011 (NSC837082), adavosertib (NSC754352), prexasertib (NSC758257), carboplatin (NSC241240) and oxaliplatin (NSC266046), were obtained from the National Cancer Institute (NCI) Developmental Therapeutics Program Chemical Repository (21). The FDA-approved anticancer drug set is available from the Developmental Therapeutics Program at https://dtp.cancer.gov/organization/dscb/obtaining/. […] The stock solutions were prepared in dimethyl sulfoxide (DMSO, Sigma-Aldrich, St. Louis, MO, cat. D2650), except for the platinum compounds which were prepared in saline (Quality Biological, Gaithersburg, MD, cat. 114-055-101), at 800-fold the tested concentration and stored at -70 degrees C prior to their use. All drugs and investigational agents were tested over a range starting from a high concentration at or near the clinical Cmax and decreasing in half-log increments. If the clinical Cmax for an agent had not been determined, the highest concentration tested was 10 microM, except for SN-38, which was tested at a high concentration of 1 microM.
Cell Culture. All cells were maintained in an incubator at 37 degrees C and 5% CO2 with 95% humidity. The PDC lines were cultured according to standard operating procedures established by the NCI PDMR (https://pdmr.cancer.gov). Table 3 of the manuscript, lists the cell lines along with the number of the three cell types plated to form the mct-spheroids and media for tumor cell growth. After thawing, all PDC lines, except 997537-175-T-J1-PDC and 415267-285-R-J2-PDC, were cultured in Matrigel-coated flasks prepared with a working solution of 1X Ham's F-12 nutrient mix, without supplementation (Thermo Fisher Scientific, cat. 11765054), 100 U/mL penicillin-streptomycin (Thermo Fisher Scientific, cat. 15140122), and 2.5% Matrigel (Corning Inc., Corning, NY, cat. 354248) for the first three passages. The two PDC lines 997537-175-T-J1-PDC and 415267-285-R-J2-PDC were cultured on uncoated flasks. The 857933-349-R-J2-PDC line was cultured in 6C/Colon 1B media containing advanced DMEM/F-12 (Thermo Fisher Scientific, cat. 12634028), 10 mM HEPES (Thermo Fisher Scientific, cat. 15630080), 1X GlutaMAX supplement (Thermo Fisher Scientific, cat. 35050061), 0.1 mg/mL primocin (InvivoGen, San Diego, CA, cat. ant-pm-2), 10% defined fetal bovine serum, heat inactivated (HyClone Laboratories Inc., Logan, UT, cat. SH30070.03HI), 50% L-WRN conditioned media (ATCC, cat. CRL-3276), 1.25 mM N-Acetyl-L-cysteine (Sigma-Aldrich, cat. A9165), 10 mM nicotinamide (Sigma-Aldrich, cat. N0636), 1X B-27 supplement (Thermo Fisher Scientific, cat. 17504044), 1X N-2 supplement (Thermo Fisher Scientific, cat. […]

[1] = compound alone, run of 11/06/2023
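Also: spheroids exposed to compounds for seven days.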
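For viability, T/C in this document: 100% = DMSO vehicle control viability.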

IC50 [1]: > 10000 nM
SMILES: Nc1ccc(C#CCN(C(=O)Cc2ncc(C(F)(F)F)cc2C(F)(F)F)c2ccc(F)cc2)nn1
viability, T/C (compound 0.0316 µM): 94.8% [middle of 12 runs]
viability, T/C (compound 0.1 µM): 99.1% [middle of 13 runs]
viability, T/C (compound 0.316 µM): 105% [middle of 13 runs]
viability, T/C (compound 1 µM): 102% [middle of 13 runs]
viability, T/C (compound 3.16 µM): 101% [middle of 12 runs]
viability, T/C (compound 10 µM): 108% [middle of 13 runs]

SMILES: CNCc1ccc(-c2[nH]c3cc(F)cc4c3c2CCNC4=O)cc1
viability, T/C (compound 0.0316 µM): 111% and 108% and 115%
viability, T/C (compound 0.1 µM): 108% and 97.9% and 106%
viability, T/C (compound 0.316 µM): 102% and 109% and 99.4%
viability, T/C (compound 1 µM): 105% and 104% and 103%
viability, T/C (compound 3.16 µM): 112% and 105% and 113%
viability, T/C (compound 10 µM): 100% and 99.3% and 95.5%
IC50 (curve of compound): > 10000 nM

SMILES: COc1cccc2c1C(=O)c1c(O)c3c(c(O)c1C2=O)CC(O)(C(=O)CO)CC3OC1CC(N)C(O)C(C)O1 (centres undefined)
viability, T/C (compound 0.0316 µM): 78% and 71.8% and 78.2%
viability, T/C (compound 0.1 µM): 60.5% and 38.2% and 54.6%
viability, T/C (compound 0.316 µM): 32.8% and 29.6% and 32.9%
viability, T/C (compound 1 µM): 8.2% and 10% and 11.1%
viability, T/C (compound 3.16 µM): 1.38% and 0.34% and 0.33%
viability, T/C (compound 10 µM): 0.57% and 0.47% and 0.49%
IC50 (curve of compound): 155 nM and 73.6 nM and 132 nM

SMILES: CC[C@@]1(O)C(=O)OCc2c1cc1n(c2=O)Cc2cc3c(CN(C)C)c(O)ccc3nc2-1
viability, T/C (compound 0.000316 µM): 101% and 91.4% and 104%
viability, T/C (compound 0.001 µM): 99.7% and 100% and 110%
viability, T/C (compound 0.00316 µM): 87.8% and 92.4% and 88.8%
viability, T/C (compound 0.01 µM): 103% (2×) and 107%
viability, T/C (compound 0.0316 µM): 101% and 92.7% and 97.3%
viability, T/C (compound 0.1 µM): 71.1% and 63.3% and 63.1%
IC50 (curve of compound): > 100 nM

SMILES: CC1COCCN1c1cc(-c2ccnn2C)c2ccnc(-c3ccn[nH]3)c2n1 (centres undefined)
viability, T/C (compound 0.0316 µM): 86.5% and 92.4% and 75%
viability, T/C (compound 0.1 µM): 74.4% and 67.1% and 60.5%
viability, T/C (compound 0.316 µM): 42.4% and 42.7% and 43.7%
viability, T/C (compound 1 µM): 19.7% and 27.9% and 21.6%
viability, T/C (compound 3.16 µM): 17% and 16.9% and 14.9%
viability, T/C (compound 10 µM): 14.1% and 11.3% and 13.9%
IC50 (curve of compound): 239 nM and 230 nM and 198 nM

SMILES: Nc1ccn(C2OC(CO)C(O)C2(F)F)c(=O)n1 (centres undefined) + Cc1cccc(N(C)C(=O)C2C(O)CCN2c2nc(C)cc(C(F)(F)F)c2C#N)c1
IC50 (curve of first compound, second compound 0.0316 µM): < 31.6 nM
IC50 (curve of first compound, second compound 0.1 µM): < 31.6 nM
IC50 (curve of first compound, second compound 0.316 µM): < 31.6 nM
IC50 (curve of first compound, second compound 1 µM): < 31.6 nM
IC50 (curve of first compound, second compound 3.16 µM): < 31.6 nM
IC50 (curve of first compound, second compound 10 µM): < 31.6 nM
viability, T/C (second compound 0.0316 µM, first compound 0.0316 µM): 35.5%
viability, T/C (second compound 0.0316 µM, first compound 0.1 µM): 20.8%
viability, T/C (second compound 0.0316 µM, first compound 0.316 µM): 14.7%
viability, T/C (second compound 0.0316 µM, first compound 1 µM): 18.1%
viability, T/C (second compound 0.0316 µM, first compound 3.16 µM): 17.1%
viability, T/C (second compound 0.0316 µM, first compound 10 µM): 10.2%
viability, T/C (second compound 0.1 µM, first compound 0.0316 µM): 41%
viability, T/C (second compound 0.1 µM, first compound 0.1 µM): 23.8%
viability, T/C (second compound 0.1 µM, first compound 0.316 µM): 15.2%
viability, T/C (second compound 0.1 µM, first compound 1 µM): 15.9%
viability, T/C (second compound 0.1 µM, first compound 3.16 µM): 14.9%
viability, T/C (second compound 0.1 µM, first compound 10 µM): 11.3%
viability, T/C (second compound 0.316 µM, first compound 0.0316 µM): 31.9%
viability, T/C (second compound 0.316 µM, first compound 0.1 µM): 20.5%
viability, T/C (second compound 0.316 µM, first compound 0.316 µM): 14.2%
viability, T/C (second compound 0.316 µM, first compound 1 µM): 15%
viability, T/C (second compound 0.316 µM, first compound 3.16 µM): 16.9%
viability, T/C (second compound 0.316 µM, first compound 10 µM): 14.1%
viability, T/C (second compound 1 µM, first compound 0.0316 µM): 28.1%
viability, T/C (second compound 1 µM, first compound 0.1 µM): 25.9%
viability, T/C (second compound 1 µM, first compound 0.316 µM): 20.2%
viability, T/C (second compound 1 µM, first compound 1 µM): 16.2%
viability, T/C (second compound 1 µM, first compound 3.16 µM): 14.3%
viability, T/C (second compound 1 µM, first compound 10 µM): 10.8%
viability, T/C (second compound 3.16 µM, first compound 0.0316 µM): 24.6%
viability, T/C (second compound 3.16 µM, first compound 0.1 µM): 22.5%
viability, T/C (second compound 3.16 µM, first compound 0.316 µM): 15.8%
viability, T/C (second compound 3.16 µM, first compound 1 µM): 16.5%
viability, T/C (second compound 3.16 µM, first compound 3.16 µM): 17.8%
viability, T/C (second compound 3.16 µM, first compound 10 µM): 11.1%
viability, T/C (second compound 10 µM, first compound 0.0316 µM): 31.1%
viability, T/C (second compound 10 µM, first compound 0.1 µM): 19.1%
viability, T/C (second compound 10 µM, first compound 0.316 µM): 20.3%
viability, T/C (second compound 10 µM, first compound 1 µM): 22%
viability, T/C (second compound 10 µM, first compound 3.16 µM): 20.5%
viability, T/C (second compound 10 µM, first compound 10 µM): 11.4%

IC50 (compound alone, run of 10/31/2023): > 10000 nM
IC50 [1]: > 10000 nM
SMILES: Cc1cccc(N(C)C(=O)C2C(O)CCN2c2nc(C)cc(C(F)(F)F)c2C#N)c1 (centres undefined)
viability, T/C (compound 0.1 µM): 102% [middle of 13 runs]
viability, T/C (compound 0.316 µM): 100% [middle of 13 runs]
viability, T/C (compound 1 µM): 105% [middle of 13 runs]
viability, T/C (compound 3.16 µM): 101% [middle of 13 runs]
viability, T/C (compound 10 µM): 97.8% [middle of 13 runs]
